System: HeLa CLL-2 cells
Test: WST-1 cell viability assay
Assay type: cell-based
Settings: 10 μM
Procedure: Absorbance at 440 nm is indicative of cellular metabolic activity in the processing of WST-1 to the absorbing Formazan. […] The cells were treated with either 5 μM NLS-mCherry-R10 II in DMEM alone (lower panel) or with 10 μM TNB-R10 5 in DMEM (upper panel). After one-hour incubation, cells were washed again in DMEM and treated with 5 μM Calcein AM in DMEM. The morphology of the cells as shown in the differential interference contrast (DIC) images is also unaffected. Scale bars 50 μm. c, Co-delivery of NLS-mCherry-R10 II in presence of Sytox Blue dead cell stain with or without added TNB-R10 5. Scale bars 20 μm.

CN[C@@H]1C[C@H]2O[C@@](C)([C@@H]1OC)n1c3ccccc3c3c4c(c5c6ccccc6n2c5c31)C(=O)NC4 [staurosporine]
effect on cellular metabolic activity (positive control): significant, detrimental effect

From patent US20250269046A1, “CELLULAR UPTAKE OF LARGE BIOMOLECULES ENABLED BY CELL-SURFACE-REACTIVE CELL-PENETRATING PEPTIDE ADDITIVES” (FORSCHUNGSVERBUND BERLIN E.V., priority 2021, published 2025)
